Test results reported in patent US12172989B2, “Histone acetyltransferase (HAT) inhibitor and use thereof” (SHANGHAI INSTITUTE OF MATERIA MEDICA, CHINESE ACADEMY OF …, priority 2018, dated 2024).

How the values were obtained:
[1] = biological target: T1, histone acetyltransferase p300 (Homo sapiens, UniProt Q09472); experiment: Histone acetyltransferase (p300) activity assay (radioisotope, [3H]-Ac-CoA); assay type: biochemical; conditions: p300 0.05 nM; histone peptide 600 nM, [3H]-Ac-CoA 250 nM; 60 min at room temperature; read-out: Inhibition rate IC50
T1 construct: purchased BPS Corporation 50071
T1 sequence (Q09472 1284-1673 limits assumed): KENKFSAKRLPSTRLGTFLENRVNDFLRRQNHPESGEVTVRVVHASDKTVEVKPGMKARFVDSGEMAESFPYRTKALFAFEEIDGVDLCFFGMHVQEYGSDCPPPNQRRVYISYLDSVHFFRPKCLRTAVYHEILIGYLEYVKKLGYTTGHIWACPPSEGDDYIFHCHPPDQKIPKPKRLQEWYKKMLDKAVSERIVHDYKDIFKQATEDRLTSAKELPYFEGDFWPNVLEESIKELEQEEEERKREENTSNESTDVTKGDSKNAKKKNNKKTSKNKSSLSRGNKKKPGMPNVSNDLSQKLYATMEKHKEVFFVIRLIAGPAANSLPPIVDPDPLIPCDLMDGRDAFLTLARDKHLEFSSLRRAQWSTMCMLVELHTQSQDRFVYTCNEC
Protocol: The reaction was finally terminated with Ac-CoA (Sigma, Cat. No. A2056) without isotope labeling. If the activity of the acetyltransferase p300 was inhibited, the isotope signal cannot be detected on the substrate polypeptide. Therefore, the inhibitory activity of the compound against the acetyltransferase p300 was evaluated.
In the enzyme reaction system, 200 nL of a diluted compound (100% DMSO) was first transferred to a test plate using Echo, where the final concentration of the compound in the enzyme reaction system ranges from 0.25 to 5000 nM. Then 10 μL/well of p300 protein (final concentration of 0.05 nM) was transferred therein, and incubated with the compound for 15 min at room temperature. Then 10 μL/well of a substrate mixture (final concentrations of histone peptide and [^3H]—Ac-CoA were 600 nM and 250 nM, respectively) was added to start the enzyme-catalyzed reaction, and incubated at room temperature for 60 min. Then 10 µL/well of a 250 μM cold Ac-CoA solution was added to stop the reaction. Finally 25 μL/well of the reaction solution was transferred to a 384-well Flashplate (Perkin Elmer, Cat. No. SMP410A001PK), and incubated at room temperature for 1 h. The resultant was washed with double distilled water+0.1% Tween-20 three times. The signal value was read by using Microbeta. The data was analyzed by using GraphPad Prism 5.0 software to obtain IC50.

[2] = system: human mantle cell lymphoma (MCL) cell line MAVER-1; experiment: Cell growth inhibition experiment (CellTiter-Glo), MAVER-1; assay type: cell-based; conditions: MAVER-1 cells treated with the compound for 5 days
Protocol: The human mantle cell lymphoma (MCL) cell line MAVER-1 (from ATCC, CRL-3008) was cultured with RPMI 1640 medium (Gibco, available from Life Technologies Corporation, 22400-089) containing […] (Gibco, available from Life Technologies, 10099-141) and 1% antibiotics (penicillin and streptomycin, available from Life Technologies Corporation, 10378016) in a CO2 cell incubator (37° C., 5% CO2). In the cell growth inhibition experiment, MAVER-1 cells in exponential growth phase were seeded on a 96-well plate (purchased from Corning Company, 3599) in a volume of 100 μL/well and a cell density of 1*10E5 cells/well. After seeded, the plate was placed in a CO2 incubator to culture for 1 h. 100 μL of a compound at different concentrations diluted in 3-fold gradient or DMSO were added in a 96-well plate containing the cells. The final concentration of the compound ranges from 0.3 to 10000 nM, and the final concentration of DMSO is 0.05% as control group. The cells were treated with the compound for 5 days. Cell viability was measured using CellTiter-Glo reagent (purchased from Promega, G7572): the cells treated with the compound for 5 days was added with CellTiter-Glo reagent at 20 μL/well, incubated at room temperature for 10 min, transferred to a white 96-well plate (OptiPlate-96, purchased from PerkinElmer, 605299) by 80 μL. Subsequently, the luminescence signal was detected by using a multifunctional microplate reader EnVision (purchased from PerkinElmer) at a wavelength of 400-700 nm. The data was analyzed by using GraphPad Prism 5.0 software to obtain IC50.

[3] = system: Human castration resistant prostate cancer cell line 22Rv1; experiment: Cell growth inhibition experiment (CellTiter-Glo), 22Rv1; assay type: cell-based; conditions: 22Rv1 cells treated with the compound for 5 days
Protocol: (§1) Human castration resistant prostate cancer cell line 22Rv1 and LNCaP clone FGC (22Rv1 cell line was from ATCC, CRL-2505, LNCaP clone FGC cell line was purchased from Cell Bank of the Chinese Academy of Sciences) were cultured with RPMI 1640 medium (Gibco, available from Life Technologies Corporation, 22400-089) containing 10% fetal bovine serum (Gibco, available from Life Technologies, 10099-141) and 1% antibiotics (penicillin and streptomycin, available from Life Technologies Corporation, 10378016) in a CO2 cell incubator (37° C., 5% CO2). In the cell growth inhibition experiment, 22Rv1 and LNCaP clone FGC cells in exponential growth phase were seeded on a 96-well plate (purchased from Corning Company, 3599) with a volume of 150 μL/well and a cell density of 1,500 cells/well. After seeded, the plate was placed in a CO2 incubator to incubate overnight to allow the cells to adhere. On the next day, 50 μL of a compound at different concentrations diluted in 3-fold gradient or DMSO were added in a 96-well plate containing the cells. The final concentration of the compound ranges from 0.3 to 10000 nM, and the final concentration of DMSO is 0.05% as control group. The cells were treated by the compound for 5 days. Cell viability was measured using CellTiter-Glo reagent (purchased from Promega, G7572): the cell treated with the compound for 5 days was added with CellTiter-Glo reagent at 40 μL/well, incubated at room temperature for 10 min, transferred to a white 96-well plate (OptiPlate-96, purchased from PerkinElmer, 605299) by 70 μL. Subsequently, the luminescence signal was detected using a multifunctional microplate reader EnVision (purchased from PerkinElmer) at a wavelength of 400-700 nm. The data was analyzed by using GraphPad Prism 5.0 software to obtain IC50.

[4] = system: Human castration resistant prostate cancer cell line LNCaP clone FGC; experiment: Cell growth inhibition experiment (CellTiter-Glo), LNCaP clone FGC; assay type: cell-based; conditions: LNCaP clone FGC cells treated with the compound for 5 days
Protocol: as §1

SMILES | IC50 [1] | IC50 ([2]; Homo sapiens, Maver1, 120 h) | IC50 ([3]; Homo sapiens, 120 h) | IC50 ([4]; Homo sapiens, 120 h) | IC50 [2] | IC50 [3] | IC50 [4]
CNC(=O)Nc1ccc2c(c1)CC[C@]21OC(=O)N(CC(=O)N2Cc3ccccc3CC[C@H]2C(C)C)C1=O [SYY-B019-1] | 0.0027 µM | 0.04 µM | 0.205 µM | 0.186 µM | – | – | –
CNC(=O)Nc1ccc2c(c1)CC[C@]21OC(=O)N(CC(=O)N2Cc3ccc(F)cc3CC[C@H]2C2CC2)C1=O [SYY-B025-1] | 0.0016 µM | 0.044 µM | 0.079 µM | 0.067 µM | – | – | –
CNC(=O)Nc1ccc2c(c1)CC[C@]21OC(=O)N(CC(=O)N2Cc3ccc(F)cc3CC[C@H]2C(F)(F)F)C1=O [SYY-B031-1] | 0.0018 µM | 0.061 µM | 0.21 µM | 0.091 µM | – | – | –
CNC(=O)Nc1ccc2c(c1)CC[C@@]21OC(=O)N(CC(=O)N2Cc3ccccc3CC[C@H]2C)C1=O [SYY-B015-2] | 0.0037 µM | 0.018 µM | 0.033 µM | 0.015 µM | – | – | –
CNC(=O)Nc1ccc2c(c1)CC[C@]21OC(=O)N(CC(=O)N2Cc3ccccc3CC[C@H]2C)C1=O [SYY-B015-1] | 0.012 µM | 0.104 µM | 0.345 µM | 0.168 µM | – | – | –
Cn1cc(-c2ccc3c(c2)CC[C@@]32OC(=O)N(CC(=O)N3Cc4ccc(F)cc4CC[C@H]3C3CC3)C2=O)cn1 [SYY-B041-2] | 0.0034 µM | – | < 0.1 µM | < 0.1 µM | – | – | –
CNC(=O)Nc1ccc2c(c1)CC[C@@]21OC(=O)N(CC(=O)N2Cc3ccc(F)cc3CC[C@H]2C2CC2)C1=O [SYY-B025-2] | 0.0011 µM | 0.009 µM | 0.009 µM | 0.011 µM | – | – | –
CNC(=O)Nc1ccc2c(c1)CCC21NC(=O)N(CC(=O)N2Cc3ccc(F)cc3CC[C@H]2C2CC2)C1=O (stereo partly drawn) [SYY-B033] | 0.0048 µM | – | 0.127 µM | 0.078 µM | – | – | –
CNC(=O)Nc1ccc2c(c1)CC[C@@]21OC(=O)N(CC(=O)N2Cc3ccccc3CC[C@H]2C2CC2)C1=O [SYY-B018-2] | 0.00067 µM | 0.006 µM | 0.005 µM | 0.006 µM | – | – | –
NC1(C(=O)Nc2ccc3c(c2)CC[C@@]32OC(=O)N(CC(=O)N3Cc4ccc(F)cc4CC[C@H]3C3CC3)C2=O)CCC1 [SYY-B039-2] | 0.0012 µM | – | 0.036 µM | 0.015 µM | – | – | –
CNC(=O)Nc1ccc2c(c1)CC[C@@]21OC(=O)N(CC(=O)N2Cc3ccc(F)cc3CC[C@H]2C(F)(F)F)C1=O [SYY-B031-2] | 0.0019 µM | 0.018 µM | 0.023 µM | 0.066 µM | – | – | –
CCC[C@H]1CCc2ccccc2CN1C(=O)CN1C(=O)O[C@@]2(CCc3cc(NC(=O)NC)ccc32)C1=O [SYY-B024-2] | 0.024 µM | 0.116 µM | 0.077 µM | 0.053 µM | – | – | –
CNC(=O)Nc1ccc2c(c1)CCC21OC(=O)N(CC(=O)N2Cc3ccccc3CCC2C)C1=O (stereo not drawn) [SYY-B003] | – | 0.112 µM | 0.258 µM | 0.164 µM | – | – | –
NC1(C(=O)Nc2ccc3c(c2)CC[C@]32OC(=O)N(CC(=O)N3Cc4ccc(F)cc4CC[C@H]3C3CC3)C2=O)CCC1 [SYY-B039-1] | 0.0019 µM | – | 0.074 µM | 0.052 µM | – | – | –
CNC(=O)Nc1ccc2c(c1)CC[C@]21OC(=O)N(CC(=O)N2Cc3ccccc3CC[C@H]2C(F)(F)F)C1=O [SYY-B027-1] | 0.0091 µM | – | 0.04 µM | 0.048 µM | – | – | –
CNC(=O)Nc1ccc2c(c1)CC[C@@]21OC(=O)N(CC(=O)N2Cc3cc(F)ccc3OC[C@H]2C2CC2)C1=O [SYY-B029-2] | 0.0014 µM | 0.015 µM | – | 0.013 µM | – | – | –
CC(C)(N)C(=O)Nc1ccc2c(c1)CC[C@]21OC(=O)N(CC(=O)N2Cc3ccc(F)cc3CC[C@H]2C2CC2)C1=O [SYY-B037-1] | 0.0015 µM | – | 0.064 µM | 0.013 µM | – | – | –
CNC(=O)Nc1ccc2c(c1)CC[C@@]21OC(=O)N(CC(=O)N(Cc2ccc(F)cc2)[C@@H](C)C(F)(F)F)C1=O [Example A-485, reference compound] | – | – | – | – | 0.206 µM | 0.384 µM | 0.215 µM
Cn1cc(-c2ccc3c(c2)CC[C@]32OC(=O)N(CC(=O)N3Cc4ccc(F)cc4CC[C@H]3C3CC3)C2=O)cn1 [SYY-B041-1] | 0.0043 µM | – | < 0.1 µM | < 0.1 µM | – | – | –
